From ChEMBL document CHEMBL1154349, “Syntheses of aminoalcohol-derived macrocycles leading to a small-molecule binder to and inhibitor of Sonic Hedgehog” (Bioorg Med Chem Lett, 2009) come the findings set out here.

The source made the active and inactive calls. The calls are words filed in the database; no cut-off is given here.

Data set [1] is described as follows: Cytotoxicity against mouse Shh Light2 cells by cell titer glo assay. It counts as cell-based. As to conditions: shh light ii. (Cellular ATP, detected with luciferase, serves as a proxy for viable cell number.)
The target in data set [2] is Sonic hedgehog protein (Homo sapiens, UniProt Q15465). Kind of data set: Binding affinity to recombinant Shh N-terminal peptide by surface plasma resonance.
Sequence of Sonic hedgehog protein (Homo sapiens, UniProt Q15465) (Q15465 24-197 limits assumed): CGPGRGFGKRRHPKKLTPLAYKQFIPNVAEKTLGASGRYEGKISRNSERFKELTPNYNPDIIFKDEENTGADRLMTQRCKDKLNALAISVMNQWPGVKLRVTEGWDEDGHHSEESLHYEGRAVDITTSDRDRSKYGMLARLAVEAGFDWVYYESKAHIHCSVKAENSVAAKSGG
Data set [3] concerns the target Sonic hedgehog protein (Mus musculus) (UniProt Q62226). Kind of data set: Inhibition of SHH in mouse Ptch deffective MEF cells after 30 hrs by Gli-responsive beta-galactosidse reporter gene assay. It counts as cell-based. Background: In a reporter assay the amount or activity of a reporter protein is the signal.
Data set [4] shares this target. In words: Inhibition of SHH in mouse Shh Light2 cells after 30 hrs by GLI-responsive bright glo luciferase reporter gene assay relative to 6 uM cyclopamine. It counts as functional, cell-based. As to conditions: Shh Light II.
Data set [5] has as its target Sonic hedgehog protein (Mus musculus, UniProt Q62226). Kind of data set: (§1) Inhibition of SHH in mouse Shh Light2 cells after 30 hrs by GLI-responsive bright glo luciferase reporter gene assay. It counts as functional, cell-based, Shh Light II.
The target of data set [6] is Sonic hedgehog protein (Mus musculus) (UniProt Q62226). The description is as §1. It counts as functional, cell-based. As to conditions: Shh Light II.
The target is the same in data set [7]. In words: Inhibition of SHH in mouse Shh Light2 cells after 30 hrs by GLI-responsive bright glo luciferase reporter gene assay relative to cyclopamine. It counts as functional, cell-based. As to conditions: Shh Light II.
The target is the same in data set [8]. Kind of data set: Inhibition of SHH in mouse Shh Light2 cells after 30 hrs by GLI-responsive bright glo luciferase reporter gene assay at 15.6 uM relative to 6 uM cyclopamine. As to conditions: Shh Light II. It counts as functional, cell-based.

What is called EC50 is the concentration needed to bring the measured effect to its halfway point. Read a low EC50 as an effect from little substance. A word on the Kd: it is the free concentration of one partner at which half of the binding sites on the other are occupied at equilibrium, for simple one-to-one binding.

Sequence of Sonic hedgehog protein (Mus musculus, UniProt Q62226) (Q62226 25-198 limits assumed): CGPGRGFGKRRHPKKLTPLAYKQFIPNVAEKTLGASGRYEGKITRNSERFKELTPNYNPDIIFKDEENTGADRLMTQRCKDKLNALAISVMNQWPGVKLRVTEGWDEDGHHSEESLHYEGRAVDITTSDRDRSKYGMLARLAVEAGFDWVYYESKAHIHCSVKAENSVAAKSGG

Take `O=C(C[C@@H]1C/C=C/CCCC(=O)O[C@H](c2ccccc2)CNC1=O)NCc1ccc(Cl)cc1`: the Activity entry was “Non-toxic” in data set [1] and “Dose-dependent effect” on Sonic hedgehog protein [2]. In data set [3], the inhibition result was “inactive”. Moreover, in data set [4], the ECmax worked out at 93%.
`O=C(C[C@@H]1C/C=C/CCCC(=O)OCCNC1=O)NCc1ccc(Cl)cc1`: the Activity result in data set [1] is “Non-toxic”; on Sonic hedgehog protein [2], “Dose-dependent effect”. Moreover, in data set [3], the inhibition entry was “inactive”.
`O=C(C[C@@H]1C/C=C/CCC(=O)O[C@H](c2ccccc2)CNC1=O)NCc1ccc(Cl)cc1` [ROBOTNIKININ]: the figures for the Activity entry (in data set [1]; on Sonic hedgehog protein [2]) were “Non-toxic” and “Dose-dependent effect”, respectively. For the same compound, in data set [3], the inhibition entry was “inactive”. Besides, the ECmax in data set [4] came to 91%. Besides, the midpoint of the response at Sonic hedgehog protein [5], the EC50, lay at 4 µM.
`O=C(C[C@@H]1C/C=C/CCCCC(=O)OCCNC1=O)NCc1ccc(Cl)cc1`: the Activity result is “Non-toxic” in data set [1] and “Dose-dependent effect” on Sonic hedgehog protein [2]. Moreover, the inhibition result in data set [3] is “inactive”. Besides, in data set [4], the ECmax was 70%.
On to `O=C(C[C@H]1C/C=C/CCCCC(=O)O[C@@H](c2ccccc2)CNC1=O)NCc1ccc(Cl)cc1`, for which, in data set [1], the Activity result is recorded as “Non-toxic”. Besides, the inhibition entry in data set [3] is “inactive”.
In the case of `O=C(C[C@H]1C/C=C/CCC(=O)O[C@H](c2ccccc2)CNC1=O)NCc1ccc(Cl)cc1`, the Activity entry was “Non-toxic” in data set [1] and “Dose-dependent effect” on Sonic hedgehog protein [2]. Besides, in data set [3], the inhibition entry was “inactive”. In data set [6], the ECmax worked out at 62.5 µM.
Take `O=C(C[C@@H]1C/C=C/CCC(=O)OCCNC1=O)NCc1ccc(Cl)cc1`: the Activity entry in data set [1] is “Non-toxic”; at Sonic hedgehog protein [2], “Dose-dependent effect”. Further, the inhibition entry in data set [3] is “inactive”. The same compound yielded an ECmax in data set [4] of 55%.
In the case of `O=C(C[C@@H]1C/C=C/CCCCC(=O)O[C@H](c2ccccc2)CNC1=O)NCc1ccc(Cl)cc1`, the Activity entry in data set [1] was “Non-toxic”; on Sonic hedgehog protein [2] it was “Dose-dependent effect”. The inhibition result in data set [3] was “inactive”.
Consider `O=C(C[C@H]1C/C=C/CCCCC(=O)O[C@H](c2ccccc2)CNC1=O)NCc1ccc(Cl)cc1`, for which the Activity entry in data set [1] is “Non-toxic”. Besides, the inhibition entry (on Sonic hedgehog protein [2]; in data set [3]) was “inactive” each time.
Consider `O=C(C[C@H]1C/C=C/CCCC(=O)O[C@@H](c2ccccc2)CNC1=O)NCc1ccc(Cl)cc1`, for which, in data set [1], the Activity result is “Non-toxic”. On Sonic hedgehog protein [2], the Activity entry is “Dose-dependent effect” and the Kd was 3.1 µM. In addition, the inhibition result in data set [3] was “inactive”.
Regarding `O=C(C[C@H]1C/C=C/CCC(=O)OCCNC1=O)NCc1ccc(Cl)cc1`, the Activity result in data set [1] is “Non-toxic”; on Sonic hedgehog protein [2] it was “Dose-dependent effect”. In data set [3], the inhibition result is “inactive”. The same compound registered an ECmax in data set [4] of 50%.
As for `O=C(C[C@@H]1C/C=C/CCCCC(=O)O[C@@H](c2ccccc2)CNC1=O)NCc1ccc(Cl)cc1`, the Activity was over 31 µM in data set [1] and “Dose-dependent effect” at Sonic hedgehog protein [2]. Also, the inhibition result in data set [3] was “inactive”.
In the same order, the values of `O=C(C[C@@H]1C/C=C/CCCC(=O)O[C@@H](c2ccccc2)CNC1=O)NCc1ccc(Cl)cc1` are “Non-toxic”, “Dose-dependent effect” and “inactive”.
Regarding `O=C(C[C@H]1C/C=C/CCCC(=O)O[C@H](c2ccccc2)CNC1=O)NCc1ccc(Cl)cc1`, in data set [1], the Activity result is reported as “Non-toxic”. Further, the inhibition result in data set [3] is “inactive”. The compound further registered an ECmax in data set [7] of 71%.
For `O=C(C[C@H]1C/C=C/CCC(=O)O[C@@H](c2ccccc2)CNC1=O)NCc1ccc(Cl)cc1`, the Activity result was “Non-toxic” in data set [1] and “Dose-dependent effect” on Sonic hedgehog protein [2]. The inhibition result in data set [3] is “inactive”.
For `O=C(C[C@H]1C/C=C/CCCCC(=O)OCCNC1=O)NCc1ccc(Cl)cc1`, the Activity result in data set [1] is on record as “Non-toxic”. Also, the inhibition result in data set [3] is “inactive”.
The matching figures for `O=C(C[C@H]1C/C=C/CCCC(=O)OCCNC1=O)NCc1ccc(Cl)cc1`: “Non-toxic” and “inactive”.
On to `O=C(C[C@@H]1C/C=C/CCC(=O)O[C@@H](c2ccccc2)CNC1=O)NCc1ccc(Cl)cc1`, for which the Activity was over 15.6 µM in data set [1] and “Dose-dependent effect” on Sonic hedgehog protein [2]. In addition, in data set [3], the inhibition entry was “inactive”. This compound also had an ECmax in data set [8] of 57%.
